Test results as given in patent publication US20230233650A1, “NOVEL FATTY ACID MODIFIED UROCORTIN 2 DERIVATIVES AND THE USES THEREOF” (Novo Nordisk A/S, priority 2021, published 2023).
Read-outs that look alike come from different tables or passages of the source. Numbered stars: 1 amine (or outer) side, 2 acyl side, 3 side chain; on linkers, the order of the positions; unused ones are H or OH. Side chains are listed from the residue outwards. Ends that are not written are not given here. Peptide text beside a SMILES is read from it. * marks the point of attachment. C20 diacid = O=C(O)CCCCCCCCCCCCCCCCCCC(=O)*; γGlu = O=C(O)[C@H](CCC(=O)[*:2])N[*:1]; AEEA = NCCOCCOCC(=O)O

Legend:
[1] = biological target: T1, Human CRF1 receptor (Homo sapiens, UniProt P34998); assay: CRF1 receptor binding, scintillation proximity assay (SPA); conditions: displacement of [125I]-Sauvagine, CHO-K1 cell membranes
T1 construct: host or cells: CHO-K1 (membrane preparation)
T1 sequence (P34998 24-415): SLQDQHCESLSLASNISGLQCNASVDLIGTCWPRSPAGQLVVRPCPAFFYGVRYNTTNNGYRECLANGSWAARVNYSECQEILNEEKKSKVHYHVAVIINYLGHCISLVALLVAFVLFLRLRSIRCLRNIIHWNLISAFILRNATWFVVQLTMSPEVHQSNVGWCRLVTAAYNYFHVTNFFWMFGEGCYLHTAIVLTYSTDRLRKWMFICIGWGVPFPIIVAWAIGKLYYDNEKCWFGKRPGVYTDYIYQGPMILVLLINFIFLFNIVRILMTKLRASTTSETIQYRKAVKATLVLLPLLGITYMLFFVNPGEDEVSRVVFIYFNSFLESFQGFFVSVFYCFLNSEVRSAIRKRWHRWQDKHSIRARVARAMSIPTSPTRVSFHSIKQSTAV
Experimental: (§1) The purpose of this example was to test the in vitro binding of the compounds of the invention to receptor subtypes CRF1 and CRF2. The in vitro binding of the compounds was determined in a scintillation proximity assay (SPA) as described below. The native, human Ucn1 and Ucn2 peptides are included as references. Scintillation Proximity Assay: […] Both cell lines were cultured at 37° C. in a humidified atmosphere with 5% CO2. […] Membranes were prepared by the following protocol: cultured cells were washed twice with cold Dulbecco’s phosphate buffered saline and detached using TrypLE™ (ThermoFisher) and transferred to tubes and centrifuged for 5 minutes at 1000 g at +4° C. Pellets were resuspended in ice cold homogenization buffer (20 mM Hepes pH 7.1, 5 mM MgCl2, 1 mg/ml Bacitracin with 2 complete EDTA-free protease inhibitor cocktail tablets/50 ml (Roche)) and then homogenized for 30 seconds using a Ultra-Turrax T25 tissue homogenizer (IKA) at medium speed. The homogenate was centrifuged at 35,000 g for 15 minutes at +4° C. using an ultracentrifuge, and the supernatant was discarded, and fresh homogenization buffer was added. Homogenization of the pellet was repeated a total of three times. The final pellet was resuspended in a few millilitres of homogenization buffer and protein concentration was determined using the Bradford method. The membrane preparation was transferred to cryotubes, and the aliquots were stored at -80° C. Each membrane preparation was subsequently titrated to give an appropriate window in the assay. Test procedure: […] Plates were sealed and incubated at 25° C. for 2 hours in a plate shaker set at 400 rpm and thereafter centrifuged at 1500 rpm for 10 minutes. SPA plates were let to stand at room temperature for about 16 hours prior to reading on microplate scintillation counter. Displacement of radioligand was measured as reduction in luminescence, and IC50 values were calculated by nonlinear regression analysis of four parameter sigmoidal dose-response curves.

[2] = biological target: T2, Human CRF2 receptor (Homo sapiens, UniProt Q13324); assay: CRF2 receptor binding, scintillation proximity assay (SPA); conditions: displacement of [125I]-Sauvagine, CHO-K1 cell membranes
T2 construct: host or cells: CHO-K1 (membrane preparation)
T2 sequence (Q13324 1-411): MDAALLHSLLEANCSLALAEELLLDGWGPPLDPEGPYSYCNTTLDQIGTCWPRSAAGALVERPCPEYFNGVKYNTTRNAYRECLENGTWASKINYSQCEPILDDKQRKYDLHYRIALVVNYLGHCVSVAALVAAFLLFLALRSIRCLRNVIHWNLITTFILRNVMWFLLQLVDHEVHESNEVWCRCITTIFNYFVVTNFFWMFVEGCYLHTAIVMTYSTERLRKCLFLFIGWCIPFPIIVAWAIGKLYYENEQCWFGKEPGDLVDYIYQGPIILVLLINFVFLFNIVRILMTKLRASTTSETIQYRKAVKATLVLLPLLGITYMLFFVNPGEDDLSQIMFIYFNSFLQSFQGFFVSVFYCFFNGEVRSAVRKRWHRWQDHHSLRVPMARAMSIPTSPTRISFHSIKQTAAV
Experimental: as §1

[3] = Physical stability of liquid formulation (visible particles, turbidity); type: physicochemical; conditions: 8 mM sodium phosphate; for Particle formation onset: pH 7.4, 31-37 mg/mL (Compound 7: 21 mg/mL), 37° C., 2 weeks, daily rotation
Experimental: The purpose of the study was to evaluate the physical stability of a liquid pharmaceutical formulation comprising test compound. The physical stability was determined as the formation of visible particles and the change in turbidity over time.
Test procedures: Test compound was dissolved in 8 mM sodium phosphate, pH 7.4 to a concentration of 31-37 mg/mL in vials (except for Compound 7 which was dissolved to a concentration of 21 mg/mL and Compound 5 which was not soluble at concentrations of ≥20 mg/mL). The vials were incubated at 37° C. for 2 weeks. Every day the vials were rotated end-to-end for 1 minute, 30 rounds. Every second day the vials were placed in front of a black background with strong LED light (Schott light source, KL2500) illuminating from below and a picture for analysis was taken.
Analysis: “Average pixel intensity” is a measure of turbidity of a liquid solution. It was measured by taking the average pixel intensity, ranging from 0 (black) to 255 (white), in a small square of a digital image of the glass vials containing a liquid solution and results are reported in FIG. 1. “Particle density” is a measure of visible particles in a liquid solution. It was measured by counting the number of visible particles in a region of a digital image of the glass vial containing a liquid solution and dividing with the area of the region and the results are reported in FIG. 2.

[4] = for Average purity loss per week: 8 mM sodium phosphate buffer pH 7.4, 0.7-1.1 mM, 37° C., 0-4 weeks, UPLC
Excerpt: The purpose of the study was to evaluate the chemical stability of a liquid pharmaceutical formulation comprising test compound. The chemical stability was be determined by measuring test compound purity loss (i.e. reduction of test compound relative to other species in the sample) over time using ultra-performance liquid chromatography (UPLC) coupled to an ultra-violet detector operated in reversed-phase mode.
Equipment and analysis conditions: Acquity UPLC I-Class instrument (Waters, Milford, US) together with either an Acquity UPLC CSH Fluorophenyl column (PN. 186005353 from Waters, Milford, US) or an Acquity Premier CSH column (PN. 186009462 from Waters, Milford, US), both having the dimensions 150 × 2.1 mm, particle diameter 1.7 µm and kept at 30° C., was used for the test. Mobile phase A was 0.1% vol/vol trifluoroacetic acid in water and mobile phase B was 0.09% vol/vol trifluoroacetic acid in acetonitrile. The flow rate was 0.35 mL/min while elution was done with a linear gradient of 26% to 40% mobile phase B over 50 min for the UPLC Fluorophenyl column and 30% to 50% mobile phase B over 50 min for the Premier CSH column. Detection was performed at UV 214 nm with 2 µL of volume injected from each sample.
Samples were kept in glass vials for quiescent storage in a 37° C. incubation chamber and subjected to analysis after 0, 1, 2, 3 and 4 weeks. Samples were analysed using UPLC (as described above) with chromatogram peak area as a measure of test compound concentration. Purity was determined at each timepoint as the fraction, given in %, of test compound relative to other species present in the sample. The purity loss over time is the relative difference in % test compound between timepoints and it is reported in Table 7 as the average from the five timepoints.

IC50 [1] [µM]	IC50 [2] [µM]	Particle formation onset [3]	Average purity loss per week [4]	Compound	also measured
> 1	0.569	–	–	CC[C@H](C)[C@H](NC(=O)[C@H](CCC(=O)O)NC(=O)[C@H](C)NC(=O)[C@H](CC(N)=O)NC(=O)[C@@H](NC(=O)[C@@H](NC(=O)[C@H](C)NC(=O)[C@H](CCC(N)=O)NC(=O)[C@H](CCC(=O)O)NC(=O)[C@H](CCCNC(=N)N)NC(=O)[C@H](C)NC(=O)[C@H](C)NC(=O)[C@H](CCCNC(=N)N)NC(=O)[C@H](C)NC(=O)[C@H](CCCNC(=N)N)NC(=O)[C@H](C)NC(=O)[C@H](CCC(N)=O)NC(=O)[C@H](CCC(=O)O)NC(=O)[C@H](CC(C)C)NC(=O)[C@H](CC(C)C)NC(=O)[C@@H](NC(=O)[C@H](CCC(N)=O)NC(=O)[C@H](CC(C)C)NC(=O)[C@H](CC(C)C)NC(=O)CNC(=O)[C@@H](NC(=O)[C@@H]1CCCN1C(=O)[C@@H](NC(=O)[C@H](CC(=O)O)NC(=O)[C@H](CC(C)C)NC(=O)[C@H](CO)NC(=O)[C@H](CC(C)C)NC(=O)[C@@H](NC(=O)[C@@H](NC(=O)[C@@H](N)CCCCNC(=O)COCCOCCNC(=O)COCCOCCNC(=O)CC[C@H](NC(=O)CC[C@H](NC(=O)CC[C@H](NC(=O)CCCCCCCCCCCCCCCCCCC(=O)O)C(=O)O)C(=O)O)C(=O)O)[C@@H](C)CC)C(C)C)C(C)C)[C@@H](C)CC)[C@@H](C)CC)[C@@H](C)O)[C@@H](C)O)C(=O)N[C@@H](CCC(=O)O)C(=O)N[C@@H](C)C(=O)N[C@@H](CCCNC(=N)N)C(=O)N[C@H](C(N)=O)C(C)C [Compound 10] (H-K([AEEA-AEEA-γGlu-γGlu-γGlu-C20 diacid])IVLSLDVPIGLLQILLEQARARAAREQATTNAEIEARV-NH2)	–
–	–	7 days	3.95%	N{ε}-[[[(4S)-4-carboxy-4-[[(4S)-4-carboxy-4-[[(4S)-4-carboxy-4-(19-carboxynonadecanoylamino)butanoyl]amino]butanoyl]amino]butanoyl]amino]ethoxy]ethoxy]a cetyl]amino]ethoxy]ethoxy]acetyl]Lys-[Glu36]-hUcn2 [Compound 7]	–
–	–	1 days	0.90%	N{ε}-[[[(4S)-4-carboxy-4-[[(4S)-4-carboxy-4-[[(4S)-4-carboxy-4-(19-carboxynonadecanoylamino)butanoyl]amino]butanoyl]amino]butanoyl]amino]ethoxy]ethoxy]a cetyl]amino]ethoxy]ethoxy]acetyl]Lys-[Glu33]-hUcn2 [Compound 6]	–
–	–	Not soluble	Not soluble	N{ε}-[[[(4S)-4-carboxy-4-[[(4S)-4-carboxy-4-[[(4S)-4-carboxy-4-(19-carboxynonadecanoylamino)butanoyl]amino]butanoyl]amino]butanoyl]amino]ethoxy]ethoxy]a cetyl]amino]ethoxy]ethoxy]acetyl]Lys-hUcn2 [Compound 5]	Solubility (not soluble at concentrations of) ([3]; pH 7.4): < 20 mg/mL; Solubility (not soluble at concentrations of) ([4]; pH 7.4): < 700 µM
> 1	0.897	–	–	CC[C@H](C)[C@H](NC(=O)[C@H](CCCNC(=N)N)NC(=O)[C@H](C)NC(=O)[C@H](CC(N)=O)NC(=O)[C@@H](NC(=O)[C@@H](NC(=O)[C@H](C)NC(=O)[C@H](CCC(N)=O)NC(=O)[C@H](CCC(=O)O)NC(=O)[C@H](CCCNC(=N)N)NC(=O)[C@H](C)NC(=O)[C@H](C)NC(=O)[C@H](CCCNC(=N)N)NC(=O)[C@H](C)NC(=O)[C@H](CCCNC(=N)N)NC(=O)[C@H](C)NC(=O)[C@H](CCC(N)=O)NC(=O)[C@H](CCC(=O)O)NC(=O)[C@H](CC(C)C)NC(=O)[C@H](CC(C)C)NC(=O)[C@@H](NC(=O)[C@H](CCC(N)=O)NC(=O)[C@H](CC(C)C)NC(=O)[C@H](CC(C)C)NC(=O)CNC(=O)[C@@H](NC(=O)[C@@H]1CCCN1C(=O)[C@@H](NC(=O)[C@H](CC(=O)O)NC(=O)[C@H](CC(C)C)NC(=O)[C@H](CO)NC(=O)[C@H](CC(C)C)NC(=O)[C@@H](NC(=O)[C@@H](NC(=O)[C@@H](N)CCCCNC(=O)COCCOCCNC(=O)COCCOCCNC(=O)CC[C@H](NC(=O)CC[C@H](NC(=O)CC[C@H](NC(=O)CCCCCCCCCCCCCCCCCCC(=O)O)C(=O)O)C(=O)O)C(=O)O)[C@@H](C)CC)C(C)C)C(C)C)[C@@H](C)CC)[C@@H](C)CC)[C@@H](C)O)[C@@H](C)O)C(=O)N[C@@H](CCC(=O)O)C(=O)N[C@@H](C)C(=O)N[C@@H](CCCNC(=N)N)C(=O)N[C@H](C(N)=O)C(C)C [Compound 9] (H-K([AEEA-AEEA-γGlu-γGlu-γGlu-C20 diacid])IVLSLDVPIGLLQILLEQARARAAREQATTNARIEARV-NH2)	–
–	–	–	2.43%	N{ε}-[[[(4S)-4-carboxy-4-[[(4S)-4-carboxy-4-[[(4S)-4-carboxy-4-(19-carboxynonadecanoylamino)butanoyl]amino]butanoyl]amino]butanoyl]amino]ethoxy]ethoxy]a cetyl]amino]ethoxy]ethoxy]acetyl]Lys-[Glu37]-hUcn2 [Compound 8]	–
> 1	0.196	–	–	CC[C@H](C)[C@H](NC(=O)[C@H](CCC(=O)O)NC(=O)[C@H](C)NC(=O)[C@H](CC(N)=O)NC(=O)[C@@H](NC(=O)[C@@H](NC(=O)[C@H](C)NC(=O)[C@H](CCC(N)=O)NC(=O)[C@H](CCC(=O)O)NC(=O)[C@H](CCCNC(=N)N)NC(=O)[C@H](C)NC(=O)[C@H](C)NC(=O)[C@H](CCCNC(=N)N)NC(=O)[C@H](C)NC(=O)[C@H](CCCNC(=N)N)NC(=O)[C@H](C)NC(=O)[C@H](CCC(N)=O)NC(=O)[C@H](CCC(=O)O)NC(=O)[C@H](CC(C)C)NC(=O)[C@H](CC(C)C)NC(=O)[C@@H](NC(=O)[C@H](CCC(N)=O)NC(=O)[C@H](CC(C)C)NC(=O)[C@H](CC(C)C)NC(=O)CNC(=O)[C@@H](NC(=O)[C@@H]1CCCN1C(=O)[C@@H](NC(=O)[C@H](CC(=O)O)NC(=O)[C@H](CC(C)C)NC(=O)[C@H](CO)NC(=O)[C@H](CC(C)C)NC(=O)[C@@H](NC(=O)[C@@H](N)CCCCNC(=O)COCCOCCNC(=O)COCCOCCNC(=O)CC[C@H](NC(=O)CC[C@H](NC(=O)CC[C@H](NC(=O)CCCCCCCCCCCCCCCCCCC(=O)O)C(=O)O)C(=O)O)C(=O)O)C(C)C)C(C)C)[C@@H](C)CC)[C@@H](C)CC)[C@@H](C)O)[C@@H](C)O)C(=O)N[C@@H](CC(C)C)C(=O)N[C@@H](CCC(=O)O)C(=O)N[C@@H](CCCNC(=N)N)C(=O)N[C@H](C(N)=O)C(C)C [Compound 11] (H-K([AEEA-AEEA-γGlu-γGlu-γGlu-C20 diacid])VLSLDVPIGLLQILLEQARARAAREQATTNAEILERV-NH2)	–

Compound	IC50 [1] [µM]	IC50 [2] [µM]	Particle formation onset [3]	Average purity loss per week [4]	also measured
DNPSLSIDLTFHLLRTLLELARTQSQRERAEQNRIIFDSV-NH2 [Compound 1]	–	0.00012	–	–	–
